# Laboratory results published in US20120308537A1, “Use Of Collagen Type VII For Maintaining And Re-Inducing Osteogenic Abilities Of Mesenchymal Stem Cells” (UNIVERSITY OF SOUTHERN CALIFORNIA, priority 2009, published 2012).
# Assays:
# human MSCs [1] = assay: Alizarin red (AR) staining of MSCs in osteogenic medium (calcium accumulation and mineralization); assay type: cell-based
# Method: Alizarin red (AR) staining is normally used to determine the calcium accumulation and mineralization that are associated with bone formation. Cells in the tissue culture dishes labeled C7 were incubated with osteogenic induction medium containing 1.0 μg/ml of C7. Cells in the tissue culture dishes labelled OST were incubated with osteogenic induction medium alone (controls).
# FIG. 3A is the scanned image of Alizarin red staining (top) and its quantification (bottom).
# FIG. 3B is the scanned image of Alizarin red staining (top) and its quantification (bottom). […] The results represent mean values+/−standard deviation from experiments performed in triplicates. Note that MSCs only need to be exposed to 0.6 μg/ml of C7 during days 8-12 to attain optimal osteogenic induction.
# For these experiments, plated MSCs were plated at 3×10^5/per well on 6-well plates in MSC growth medium containing α-MEM containing 16.7% Premium FBS (Atlanta Biologicals Cat# S11550), and 2 mM L-Glutamine. After the cells reached 70% confluency, the medium was changed to osteogenic induction medium with or without 0.6 μg/ml C7 added at the time period indicated above.
# Here the MSCs were treated with 4 μg/ml of NC1 for 21 days in an osteogenic medium. Results represent mean values+/−standard deviation from experiments performed in triplicates.
# (§1) FIG. 9A is a scanned image of Alizarin staining (left) and its quantification (right). Here the MSCs were treated with 1.0 μg/ml C7 or 1.0 μg/ml C7 and 15 μM U0126 in the presence of an osteogenic medium for 21 days. In FIG. 9B, MSCs were cultured as in FIG. 9A. RNAs were collected after 14 days and subjected to RT-PCR analysis for early osteogenic gene markers. Results for staining represent mean values+/−standard deviation from experiments performed in quadruplicate. RT-PCR results represented the mean+/−standard deviation of duplicate experiments with PCR performed in triplicates. The […] inhibitor abolished C7-induced calcium deposition and expression of early osteogenic gene markers.
# [2] = tested on: ALP, Runx2, BSP, OCN mRNA in MSCs; assay: Real-Time PCR analysis of osteogenic-specific gene expression in MSCs; assay type: cell-based, human
# Method: In this experiment, MSCs were cultured in 6-well plates in growth medium until they reached confluence. Then, they were switched to osteogenic medium. Respective wells were treated with 1.0 μg/ml C7 until the indicated harvest days. Equal amounts of RNA were reverse transcribed and the mRNA levels of the indicated genes were analyzed using SYBR green master mix and primers for alkaline phosphotase (ALP), Runx2, bone sialoprotein (BSP), and osteocalcin (OCN). Data were normalized to house keeping gene GAPDH and expressed as fold-changes relative to 7D untreated cells. Results represent the mean+/−standard deviation of duplicate experiments with PCR performed in triplicates.
# as §1
# [3] = tested on: p-ERK (Ras-ERK signaling pathway); assay: Immunoblot analysis of ERK phosphorylation in MSCs under osteogenic conditions; assay type: cell-based, human
# Method: (§2) In this experiment, cells were serum starved for 48 hours and then stimulated with osteogenic medium in the absence or presence of 1.0 μg/ml C7. Cellular extracts were prepared at the times indicated and then subjected to immunoblot analysis with antibodies shown above. Total ERK and paxillin are included to indicate equal protein loading.
# In this experiment, cells were pretreated with the respective inhibitor for 1 hour before addition of 1.0 μg/ml C7. Regular ERK is included as a control for equal protein loading.
# human MSCs [4] = assay: Alkaline phosphotase (ALP) staining of MSCs in osteogenic medium; assay type: cell-based; conditions: 1.0 μg/ml C7, 14 days in osteogenic medium, vs osteogenic medium alone
# Method: ALP measures the expression of a key marker enzyme that is needed for bone formation. The tissue culture dishes labeled C7 were treated with 1.0 μg/ml C7 whereas dishes label OST were the controls. The cells were incubated in an osteogenic medium for 14 days.
# late passage MSCs = assay: Alizarin red staining of late passage MSCs (exogenous C7 or lentiviral C7 over-expression); assay type: cell-based, human
# Method: FIG. 5A is the scanned image of Alizarin red staining (top) and its quantification (bottom). Late passage MSCs (passage 8) were treated with 1.0 μg/ml of C7 in the presence of an osteogenic medium for 21 days.
# FIG. 5B is the scanned image of Alizarin red staining (top) and its quantification (bottom). Late passage MSCs infected with lentiviral vectors expressing either green fluorescence protein (GFP) or C7 were subjected to osteogenic medium for 21 days. Results represent mean values+/−standard deviation from experiments performed in triplicates.
# For these experiments, MSCs from passage 3 were infected with lentiviral vectors expressing either GFP or C7 and cultured for an additional 7 passages. Then infected MSCs (passage 10) were plated at 6 well-plates and then subjected to osteogenic induction medium.
# p-P38 = assay: Immunoblot analysis of P38 phosphorylation in MSCs under osteogenic conditions; assay type: cell-based, human; conditions: 1.0 μg/ml C7; serum starved 48 hours
# Method: as §2
# [5] = tested on: ectopic osteogenesis induction; assay: ALP assay of ectopic osteogenesis induction, intramuscular implantation in rat; assay type: in vivo; conditions: 4 weeks
# Method: (§3) The negative control was carrier only, which consisted of collagen sponge (bovine). The samples were administered to rat via intramuscular implantation on ectopic sites. The experiment lasted for 4 weeks. Two different preparations (C7 and C7′) were tested. The test dosages were: 10, 20 and 40 μg. The results were analyzed by alkaline phosphotase assay (ALP) and histology for bone formation.
# [6] = tested on: ectopic osteogenesis induction; assay: Histology analysis of ectopic osteogenesis induction (bone formation), intramuscular implantation in rat; assay type: in vivo; conditions: 4 weeks
# Method: as §3
# MSCs = assay: Inducing and maintaining the osteogenicity of MSCs by C7 fragments (general statement); assay type: cell-based; conditions: fragments of C7 containing the CMP subdomain
# [7] = 1.0 μg/ml C7 and 15 μM U0126, 14 days
# [8] = 1.0 μg/ml C7, normalized to GAPDH
compound,measurement,setting,value
"N#CC(=C(/N)Sc1ccccc1N)/C(C#N)=C(\N)Sc1ccccc1N [U0126, reference compound]",AR staining of C7-treated MSCs (C7-mediated osteogenic induction),"human MSCs [1]; 1.0 μg/ml C7 and 15 μM U0126, 21 days",reduced
same,mRNA expression of ALP in C7-treated MSCs,[2]; [7],reduced
same,mRNA expression of BSP in C7-treated MSCs,[2]; [7],reduced
same,effect of inhibitor on C7-mediated induction of p-ERK,"[3]; pretreated with inhibitor 1 hour before 1.0 μg/ml C7, proteins collected after 1 hour",Abrogated
type VII collagen [C7],osteogenic potential of human MSCs as measured by Alizarin red activity,"human MSCs [1]; 1.0 μg/ml C7, 21 days in osteogenic medium, vs osteogenic medium alone",significantly enhances
same,concentration needed to attain optimal osteogenic induction,"human MSCs [1]; exposure during days 8-12 only, osteogenic medium 21 days",0.6 µg/mL
same,osteogenic potential of human MSCs as measured by ALP activity,human MSCs [4],significantly enhances
same,restoring osteogenic potential of late passage MSCs (Alizarin red),"late passage MSCs; exogenous addition, 1.0 μg/ml C7, passage 8, 21 days",capable of restoring
same,restoring osteogenic potential of late passage MSCs (Alizarin red),"late passage MSCs; over-expression by lentiviral vector vs GFP, passage 10, 21 days",capable of restoring
same,ALP mRNA expression (early osteogenic marker),[2]; [8],upregulates
same,BSP mRNA expression (early osteogenic marker),[2]; [8],upregulates
same,OCN mRNA expression (late osteogenic marker),[2]; [8],upregulates
same,Runx2 mRNA expression (early osteogenic marker),[2]; [8],upregulates
same,production of p-ERK,"[3]; 1.0 μg/ml C7, as early as 10 minutes, sustained up to 1 hour, serum starved 48 hours",increased
same,level of p-P38,p-P38,remained unchanged
same,ALP,[5]; 10 ug C7 or C7′ + 1 ug BMP-2,0.257
same,ALP/Pro,[5]; 10 ug C7 or C7′ + 1 ug BMP-2,2.360
same,ALP/Pro,"[5]; 10 ug C7 or C7′, no BMP-2",0.517
same,ALP,"[5]; 10 ug C7 or C7′, no BMP-2, collagen sponge, intramuscular ectopic site",0.094
same,ALP,[5]; 20 ug C7 or C7′ + 1 ug BMP-2,0.384
same,ALP/Pro,[5]; 20 ug C7 or C7′ + 1 ug BMP-2,1.893
same,ALP,"[5]; 20 ug C7 or C7′, no BMP-2",0.094
same,ALP/Pro,"[5]; 20 ug C7 or C7′, no BMP-2",0.500
same,ALP,"[5]; 40 ug C7 or C7′, no BMP-2",0.092
same,ALP/Pro,"[5]; 40 ug C7 or C7′, no BMP-2",0.364
same,Bone score,[6]; 10 ug C7 or C7′ + 1 ug BMP-2,3
same,Bone score,"[6]; 10 ug C7 or C7′, no BMP-2",0
same,Bone score,[6]; 20 ug C7 or C7′ + 1 ug BMP-2,0
same,Bone score,"[6]; 20 ug C7 or C7′, no BMP-2",0
same,Bone score,"[6]; 40 ug C7 or C7′, no BMP-2",0
same,BMP-2-mediated bone induction (ALP assay and histology),"[6]; low dosage 10 μg with BMP-2, rat intramuscular implantation",significantly enhance
same,effectiveness in inducing and maintaining the osteogenicity of MSCs,MSCs,relatively effective
